# From patent US6881719B2, “β-turn peptidomimetic cyclic compounds” (McGill University, priority 2000, dated 2005)
# Legend:
# B104 cells (p75+ TrkA-) = experiment: FACScan binding of D3-biotin to B104 cells; design: species or system rat; conditions: D3-biotin 20 μM + D3 200 μM as competitor
# DRG neuronal cultures = experiment: Morphometric analysis of DRG dissociated neurons (neurite outgrowth); format: cell-based, rat; conditions: 8 days
# Experimental: In FIG. 1 primary neuronal DRG cultures were treated as indicated for 8 days, and cell differentiation was studied morphometrically. Magnification 60×. Pictures representative of 3 independent experiments.
# Fetal rat DRG primary cultures were established from Sprague Dawley day 17 rat embryos. All ganglia were dissected and dissociated first enzymatically with trypsin and then mechanically. Dissociated cells were cultured (10^5 cells/well) in 96 well plates pre-coated with collagen, and grown for a total of 8 days in Neuro Basal Medium containing N2 supplement (GIBCO, Toronto), antibiotics, and L-glutamine. These DRG cultures are ˜85% TrkA-expressing and are heavily dependent on TrkA signals for survival.
# The effect of D3 on TrkA-mediated cellular differentiation was assessed using two independent assays: morphometric analysis of DRG dissociated neurons and induction of ChAT activity in septal neuronal cultures.
# physchem = conditions: water
# TrkA-ECD = target: T1, TrkA-ECD (Homo sapiens, UniProt P04629); experiment: ELISA and RIA binding assays of NGF•TrkA-ECD
# T1 construct: pure soluble TrkA extracellular domain (TrkA-ECD) produced in baculovirus; made in house
# [1] = Enhancement of trophic effect of EGF; format: cell-based
# TrkA = TrkA (Homo sapiens, UniProt P04629); experiment: Inhibition of agonistic activity of mAb 5C3; format: cell-based
# [2] = target: T2, TrkA•TrkA homodimers (4-3.6 cells) (Homo sapiens, UniProt P04629); experiment: Detection of putative TrkA•TrkA homodimers by cross-linking and western blot; format: cell-based
# T2 construct: expressed in transfected cells
# Experimental: In FIG. 2, 4-3.6 cells were exposed to TrkA ligands as per Table 5 (lanes 1-4) or no ligand (lanes 5 and 6), and chemically cross-linked (lanes 1-5) or not cross-linked (lane 6). Cell lysates were western blotted with anti-TrkA 203 antisera.
# Live 4-3.6 cells suspended in PBS were treated with the indicated ligand(s) for 40 min at 4° C. to allow binding. Cells were then washed in PBS, cross-linked with the membrane impermeable cross-linker disuccinimidyl suberate (DSS, Pierce; 1 mM DSS, 15 minutes at 15° C.). Unreacted DSS was quenched with 5 mM ammonium acetate. Then cells were either lysed directly in SDS sample buffer (whole cell lysate), or lysed in non-ionic detergent NP-40 and immunoprecipitated with anti-Trk or anti-p75 antibodies as described (LeSauteur et al., 1996). […] For western blot analysis, equal amounts of protein or cell equivalents for each sample were resolved in a 5-10% SDS-PAGE gradient, transferred to nitrocellulose membranes (Xymotech Biosystems, Montréal, Qc), and blotted with anti-Trk polyclonal antibody 203 that recognizes the intracellular domain of Trk. Blots were visualized using the enhanced chemiluminescence (ECL) system (New England Nuclear, Boston, Mass.).
# [3] = test system: TrkB-expressing HEK293 cells; experiment: Cell survival control, TrkB-expressing HEK293 cells; format: cell-based
# Experimental: (§1) Cell lines: 5,000 cells/well in protein-free media (PFHM-II, GIBCO, Toronto) containing 0.2% bovine serum albumin (BSA) (Crystalline fraction V, Sigma, St. Louis, Mo.) were seeded in 96 well plates (Falcon, Mississauga, Ontario). The cultures were untreated, or treated with the indicated test or control ligands. Cell viability was quantitated using the MTT assay after 56-72 hours of culture. […] The OD of untreated cells were subtracted. The higher optical density of untreated primary cultures is likely due to cellular heterogeneity and to endogenous production of limiting amounts of growth factors.
# [4] = test system: wild type NIH3T3 fibroblasts; experiment: Cell survival (MTT), NIH wt; format: cell-based; conditions: 72 hours
# Source text: (§2) The 4-3.6 cells are B104 cells stably transfected with human trkA cDNA, and express equal levels of p75 and TrkA (TrkA+ p75+). For screening agents that activate or antagonize TrkC receptors, NIH3T3 fibroblasts were stably transfected with human TrkC cDNA. These cells respond to the ligand NT-3. For screening agents that activate or antagonize TrkA receptors, NIH3T3 fibroblasts were stably transfected with human TrkA cDNA. These cells respond to the ligand NGF.
# as §1
# cell surface TrkA = target: T3, cell surface TrkA (Homo sapiens, UniProt P04629); experiment: FACScan competition of mAb 5C3 binding on 4-3.6 cells; conditions: for % Maximal binding of mAb 5C3: mAb 1 nM
# T3 construct: expressed in transfected cells
# Source text: as §2
# FACScan binding assays: 4-3.6 cells (2×10^5) in FACScan binding buffer (PBS, 0.5% BSA, and 0.1% NaN3) were immunostained as described (Saragovi et al., 1998). Saturating anti-TrkA mAb 5C3, or anti-p75 mAb MC192, or control non-binding IgGs were added to cells for 1 hour at 4° C., in the presence or absence of D3 as competitor. Excess primary antibody was washed off, and cells were immunostained with fluorescinated goat-anti-mouse IgG secondary antibody. Cells were acquired on a FACScan and mean channel fluorescence of bell-shaped histograms were analyzed using the LYSIS II program.
# septal neuronal cultures = experiment: ChAT activity in septal neuronal cultures; format: cell-based, rat; conditions: day 8
# Experimental: Cell cultures were established from the septal area of 17-day-old rat embryos. In brief, tissue was incubated in PBS containing trypsin and DNase. Tissue pieces then were mechanically dissociated. After centrifugation, the pellet was suspended in Leibovitz's L-15 medium. Cells were plated onto 96-multiwell NUNC dishes (10^5 cells/well) coated with poly-D-lysine (5 μg/ml). Pure cultures of septal neurons were treated 1 day after plating. Drugs, prepared in medium, were added directly to the cells without changing the initial medium. The incubation continued for 8 days, at which time ChAT activity was evaluated.
# At day 8 of culture, the medium was aspirated, and ice-cold lysis buffer (10 mM sodium phosphate, pH 7.4/0.1% TritonX-100—Trade-mark) was added. ChAT activity assays were performed directly in the wells using Fonnum's method (Fonnum, 1975).
# T3 sequence (P04629 33-796): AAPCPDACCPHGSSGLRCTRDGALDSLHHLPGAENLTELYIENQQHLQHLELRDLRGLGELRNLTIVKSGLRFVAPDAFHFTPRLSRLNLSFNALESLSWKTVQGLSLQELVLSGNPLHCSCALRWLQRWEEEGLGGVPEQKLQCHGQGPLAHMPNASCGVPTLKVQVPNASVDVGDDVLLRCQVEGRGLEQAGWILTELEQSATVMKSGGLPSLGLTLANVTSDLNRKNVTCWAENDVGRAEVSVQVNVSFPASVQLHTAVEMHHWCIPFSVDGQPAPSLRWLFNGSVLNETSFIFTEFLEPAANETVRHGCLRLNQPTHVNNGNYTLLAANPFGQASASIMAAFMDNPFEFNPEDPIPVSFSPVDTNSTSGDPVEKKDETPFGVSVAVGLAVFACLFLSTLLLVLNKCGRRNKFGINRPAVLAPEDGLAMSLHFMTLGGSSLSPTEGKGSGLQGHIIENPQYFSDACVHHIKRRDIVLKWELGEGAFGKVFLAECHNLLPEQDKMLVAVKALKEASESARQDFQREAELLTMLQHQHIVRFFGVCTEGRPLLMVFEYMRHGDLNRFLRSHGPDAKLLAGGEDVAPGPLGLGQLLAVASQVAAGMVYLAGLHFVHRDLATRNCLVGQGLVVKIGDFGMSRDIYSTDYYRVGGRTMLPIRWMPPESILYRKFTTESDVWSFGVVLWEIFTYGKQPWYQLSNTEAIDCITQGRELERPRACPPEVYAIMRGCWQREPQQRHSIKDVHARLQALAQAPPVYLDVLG
# T2 sequence (P04629 33-796): as above
# Chain of TrkA (P04629 33-796): as above
# T1 sequence (P04629 33-423 limits assumed): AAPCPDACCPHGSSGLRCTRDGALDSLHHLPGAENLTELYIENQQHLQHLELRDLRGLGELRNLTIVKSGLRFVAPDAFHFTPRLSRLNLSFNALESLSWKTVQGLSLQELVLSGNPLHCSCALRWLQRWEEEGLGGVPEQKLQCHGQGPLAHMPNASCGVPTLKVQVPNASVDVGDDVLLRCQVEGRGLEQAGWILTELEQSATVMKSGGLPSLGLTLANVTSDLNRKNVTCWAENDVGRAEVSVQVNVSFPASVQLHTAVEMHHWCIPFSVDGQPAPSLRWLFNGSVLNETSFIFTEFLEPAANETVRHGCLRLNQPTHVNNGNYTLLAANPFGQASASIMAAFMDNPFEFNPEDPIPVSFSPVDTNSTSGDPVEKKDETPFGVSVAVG
smiles,measurement,setting,value
"NCCCC[C@@H]1NC(=O)[C@H](CCC(=O)O)NC(=O)c2cc([N+](=O)[O-])ccc2OCCC(C(=O)NCC(=O)O)NC1=O (stereo partly drawn) [D3, EKHse-G-OH]",MCF (mean channel fluorescence),B104 cells (p75+ TrkA-),11 ± 2
same,neurite outgrowth,DRG neuronal cultures; D3 alone,undergo neurite outgrowth in response to D3
same,potentiation of NGF effect on neurite outgrowth,DRG neuronal cultures; D3 with NGF,potentiates the effect of NGF
same,solubility,physchem,≥ 5000 µg/mL
same,blocking of NGF•TrkA-ECD interactions,TrkA-ECD,did not substantially block
same,enhancement of the trophic effect of EGF,[1],did not enhance
same,inhibition of optimal agonistic activity of mAb 5C3,TrkA,inhibited by D3 in a dose-dependent manner
same,"intensity of the Mr 300 kDa band (TrkA dimers), standardized to 1 nM NGF (100%)",[2]; 10 pM NGF + 10 μM D3,77±7%
same,"intensity of the Mr 300 kDa band (TrkA dimers), standardized to 1 nM NGF (100%)",[2]; 10 μM D3 alone,21±4%
same,protection from apoptosis,[3],neither D3 nor NGF protected
same,NIH wt % Protection,[4]; agent 10 μM + 10 pM NGF,0 ± 3%
same,NIH wt % Protection,[4]; agent 10 μM alone,−3 ± 5%
same,Kd,"cell surface TrkA; estimated from experimental conditions, read-out: Kd for D3•TrkA interactions",~2 µM
same,IC50,"cell surface TrkA; intact 4-3.6 cells, on average, read-out: IC50, decrease of mAb 5C3•TrkA interactions",4 µM
same,% Maximal binding of mAb 5C3,cell surface TrkA; competitor 0.20 μM,95 ± 4%
same,% Maximal binding of mAb 5C3,cell surface TrkA; competitor 1 μM,80 ± 3%
same,% Maximal binding of mAb 5C3,cell surface TrkA; competitor 5 μM,53 ± 5%
same,% Maximal binding of mAb 5C3,cell surface TrkA; competitor 40 μM,33 ± 4%
same,ChAT Activity,septal neuronal cultures; compound 0.2 μM + 10 pM NGF,0.60 ± 0.04 pmol Ach/min/well
same,Fold Increase (ChAT activity),septal neuronal cultures; compound 0.2 μM + 10 pM NGF,2.00
same,ChAT Activity,septal neuronal cultures; compound 0.2 μM alone,0.37 ± 0.05 pmol Ach/min/well
same,Fold Increase (ChAT activity),septal neuronal cultures; compound 0.2 μM alone,1.23
same,ChAT Activity,septal neuronal cultures; compound 2 μM + 10 pM NGF,0.76 ± 0.03 pmol Ach/min/well
same,Fold Increase (ChAT activity),septal neuronal cultures; compound 2 μM + 10 pM NGF,2.53
same,ChAT Activity,septal neuronal cultures; compound 2 μM alone,0.44 ± 0.02 pmol Ach/min/well
same,Fold Increase (ChAT activity),septal neuronal cultures; compound 2 μM alone,1.47
same,ChAT Activity,septal neuronal cultures; compound 20 μM + 10 pM NGF,0.79 ± 0.04 pmol Ach/min/well
same,Fold Increase (ChAT activity),septal neuronal cultures; compound 20 μM + 10 pM NGF,2.63
same,ChAT Activity,septal neuronal cultures; compound 20 μM alone,0.48 ± 0.06 pmol Ach/min/well
same,Fold Increase (ChAT activity),septal neuronal cultures; compound 20 μM alone,1.56
